Source: patent publication US20150344457A1, “METHODS OF INHIBITING PRMT5” (EPIZYME, INC., priority 2012, published 2015)

How the values were obtained:
Z-138 cells [1] = test: Z-138 Proliferation Assay (Cell Titer Glo, 5 days); type: cell-based; conditions: Homo sapiens, Table D-2
In short: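 Exponentially growing Z-138 cells (10,000 cells/ml) in RPMI 1640 with 10% FBS are exposed to nine-point 3-fold dilutions (final top concentration 20 μM, 0.2% DMSO) for 5 days at 37° C. Viability is measured as ATP by CellTiter-Glo luminescence. The 50% inhibitory concentration comes from a 4-parameter fit.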

Z-138 cells [2] = test: Z-138 Methylation Assay (In Cell Western for symmetric di-methyl arginine and DNA content); type: cell-based; conditions: Homo sapiens, Table D-2, read-out: ICW EC50
In short: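 Symmetric di-methyl arginine signal (800 nm) ratioed to DNA content (700 nm) by In Cell Western after four days of compound treatment of Z-138 suspension cells seeded at 50,000 cells/mL. Percent inhibition set between DMSO and 3 μM reference wells; IC50 curves from triplicates.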

Cn1ccc2ccc(-c3cccc(OCC(O)CN4CCc5ccccc5C4)c3)nc21 (stereo not drawn) [Compound D176]
EC50 (Z-138 cells [1]): > 20 µM
EC50 (Z-138 cells [2]): 0.101 to 1 µM

COC(=O)c1cncc(-c2cccc(OCC(O)CN3CCc4ccccc4C3)c2)c1 (stereo not drawn) [Compound D180]
EC50 (Z-138 cells [1]): > 20 µM
EC50 (Z-138 cells [2]): > 20 µM

CNC(=O)c1cncc(-c2cccc(OCC(O)CN3CCc4ccccc4C3)c2)c1 (stereo not drawn) [Compound D182]
EC50 (Z-138 cells [1]): > 20 µM
EC50 (Z-138 cells [2]): 1 to 10 µM

Cn1cnc(C(=O)Nc2cccc(OCC(O)CN3CCc4ccccc4C3)c2)c1 (stereo not drawn) [Compound D183]
EC50 (Z-138 cells [1]): > 20 µM
EC50 (Z-138 cells [2]): 1 to 10 µM

O=C(c1cccc(-c2cccc(OCC(O)CN3CCc4ccccc4C3)c2)c1)N1CCCC1 (stereo not drawn) [Compound D185]
EC50 (Z-138 cells [1]): 10 to 40 µM
EC50 (Z-138 cells [2]): 1 to 10 µM

CNC(=O)c1cccc(-c2cccc(OCC(O)CN3CCc4ccccc4C3)c2)c1 (stereo not drawn) [Compound D186]
EC50 (Z-138 cells [1]): > 20 µM
EC50 (Z-138 cells [2]): 1 to 10 µM

Cc1cn(C)c2cc(-c3cccc(OCC(O)CN4CCc5ccccc5C4)c3)ccc12 (stereo not drawn) [Compound D187]
EC50 (Z-138 cells [1]): > 20 µM
EC50 (Z-138 cells [2]): 1 to 10 µM

OC(COc1cccc(-c2ccc3ncoc3c2)c1)CN1CCc2ccccc2C1 (stereo not drawn) [Compound D188]
EC50 (Z-138 cells [1]): 10 to 40 µM
EC50 (Z-138 cells [2]): 1 to 10 µM

Cn1cnc2ccc(-c3cccc(OCC(O)CN4CCc5ccccc5C4)c3)nc21 (stereo not drawn) [Compound D189]
EC50 (Z-138 cells [1]): 0.101 to 1 µM
EC50 (Z-138 cells [2]): 0.101 to 1 µM

Cn1cnc2cnc(-c3cccc(OCC(O)CN4CCc5ccccc5C4)c3)nc21 (stereo not drawn) [Compound D191]
EC50 (Z-138 cells [1]): 1 to 10 µM
EC50 (Z-138 cells [2]): 0.101 to 1 µM

Cn1cnc2ccc(-c3cncc(NCC(O)CN4CCc5ccccc5C4)c3)cc21 (stereo not drawn) [Compound D199]
EC50 (Z-138 cells [1]): 1 to 10 µM
EC50 (Z-138 cells [2]): < 0.1 µM

OC(COc1cccc(-c2cc(OC(F)(F)F)ccc2Cl)c1)CN1CCc2ccccc2C1 (stereo not drawn) [Compound D200]
EC50 (Z-138 cells [1]): > 20 µM
EC50 (Z-138 cells [2]): 10 to 40 µM

CC(C)Oc1ccc(F)c(-c2cccc(OCC(O)CN3CCc4ccccc4C3)c2)c1 (stereo not drawn) [Compound D201]
EC50 (Z-138 cells [1]): > 20 µM
EC50 (Z-138 cells [2]): 1 to 10 µM

Cn1ncc2ccc(-c3cc(NCC(O)CN4CCc5ccccc5C4)ncn3)cc21 (stereo not drawn) [Compound D205]
EC50 (Z-138 cells [1]): > 20 µM
EC50 (Z-138 cells [2]): 0.101 to 1 µM

Cn1cnc2ccc(-c3cc(NCC(O)CN4CCc5ccccc5C4)ncn3)cc21 (stereo not drawn) [Compound D207]
EC50 (Z-138 cells [1]): 1 to 10 µM
EC50 (Z-138 cells [2]): 0.101 to 1 µM
